How the values were obtained:
SK-OV-3 = assay: Antitumor activity against human SKOV3 cells xenografted in BALB/c nude mouse assessed as tumor growth inhibition at 60 mg/kg, po administered once daily for 21 days relative to control; assay type: functional; settings: SK-OV-3, po, 504 h, read-out: TGI
hERG (KCNH2) = hERG (KCNH2) (Homo sapiens, UniProt Q12809); assay: Inhibition of ERG in human HEK293 cells at 3 uM at -80 mV holding potential by whole-cell patch clamp assay relative to control; assay type: cell-based; settings: HEK293 cells expressing ERG
hERG (KCNH2), sequence (Q12809 whole entry): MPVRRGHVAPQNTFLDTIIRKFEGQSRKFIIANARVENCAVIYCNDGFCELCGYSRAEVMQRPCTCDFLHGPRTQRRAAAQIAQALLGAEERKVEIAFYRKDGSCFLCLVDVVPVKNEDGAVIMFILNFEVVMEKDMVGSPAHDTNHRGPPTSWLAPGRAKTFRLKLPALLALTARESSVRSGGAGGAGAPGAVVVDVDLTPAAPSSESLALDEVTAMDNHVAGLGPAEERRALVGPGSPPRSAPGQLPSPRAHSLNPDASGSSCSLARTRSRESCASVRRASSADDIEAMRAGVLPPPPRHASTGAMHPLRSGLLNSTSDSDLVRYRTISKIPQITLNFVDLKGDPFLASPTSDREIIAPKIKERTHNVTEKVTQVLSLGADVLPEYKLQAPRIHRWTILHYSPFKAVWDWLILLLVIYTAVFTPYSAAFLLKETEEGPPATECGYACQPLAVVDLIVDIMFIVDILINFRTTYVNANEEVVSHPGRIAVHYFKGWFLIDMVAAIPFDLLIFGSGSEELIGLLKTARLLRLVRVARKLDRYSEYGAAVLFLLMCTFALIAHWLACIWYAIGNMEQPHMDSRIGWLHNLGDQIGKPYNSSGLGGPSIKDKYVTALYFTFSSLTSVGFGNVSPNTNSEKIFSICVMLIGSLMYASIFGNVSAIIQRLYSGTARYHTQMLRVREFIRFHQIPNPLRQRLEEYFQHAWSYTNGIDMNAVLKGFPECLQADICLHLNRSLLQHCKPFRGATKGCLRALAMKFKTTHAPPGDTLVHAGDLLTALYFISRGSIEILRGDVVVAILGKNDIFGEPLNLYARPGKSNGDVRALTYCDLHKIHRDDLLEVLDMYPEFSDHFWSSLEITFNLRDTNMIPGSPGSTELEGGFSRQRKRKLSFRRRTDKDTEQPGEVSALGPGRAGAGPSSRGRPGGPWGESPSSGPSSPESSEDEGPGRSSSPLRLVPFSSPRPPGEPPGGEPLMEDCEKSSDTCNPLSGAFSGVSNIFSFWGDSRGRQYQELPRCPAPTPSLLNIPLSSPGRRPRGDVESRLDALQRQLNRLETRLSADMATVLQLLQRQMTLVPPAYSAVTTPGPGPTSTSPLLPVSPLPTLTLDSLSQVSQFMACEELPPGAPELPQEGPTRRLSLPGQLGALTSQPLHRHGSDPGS

[1] = target: Ribosomal protein S6 kinase alpha-1 (Homo sapiens, UniProt Q15418); assay: Inhibition of RSK1 (unknown origin) by mobility shift assay
Ribosomal protein S6 kinase alpha-1, sequence (Q15418 whole entry): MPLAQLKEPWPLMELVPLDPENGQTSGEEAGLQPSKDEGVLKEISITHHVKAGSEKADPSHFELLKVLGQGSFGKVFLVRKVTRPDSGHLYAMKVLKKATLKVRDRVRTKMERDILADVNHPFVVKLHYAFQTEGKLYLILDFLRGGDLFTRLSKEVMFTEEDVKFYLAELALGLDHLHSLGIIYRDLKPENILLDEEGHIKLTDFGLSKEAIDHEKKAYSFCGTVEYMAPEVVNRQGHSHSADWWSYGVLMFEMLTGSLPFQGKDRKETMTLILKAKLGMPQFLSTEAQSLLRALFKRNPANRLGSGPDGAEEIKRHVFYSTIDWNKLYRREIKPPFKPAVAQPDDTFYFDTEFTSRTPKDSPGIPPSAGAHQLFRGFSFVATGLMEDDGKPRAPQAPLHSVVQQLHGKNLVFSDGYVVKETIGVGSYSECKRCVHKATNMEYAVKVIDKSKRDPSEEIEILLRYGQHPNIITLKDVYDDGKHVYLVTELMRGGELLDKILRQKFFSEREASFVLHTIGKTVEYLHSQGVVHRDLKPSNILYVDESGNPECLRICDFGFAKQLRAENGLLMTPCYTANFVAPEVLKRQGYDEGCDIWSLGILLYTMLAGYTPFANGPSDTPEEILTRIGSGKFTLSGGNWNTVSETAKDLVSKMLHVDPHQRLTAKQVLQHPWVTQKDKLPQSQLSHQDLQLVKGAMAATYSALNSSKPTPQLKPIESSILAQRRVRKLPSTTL

LNCaP = assay: Antiproliferative activity against human LNCAP cells; assay type: functional, cell-based
[2] = target: T1, Serine/threonine-protein kinase Sgk1 (Homo sapiens, UniProt O00141); assay: Inhibition of human SGK by mobility shift assay
T1 sequence (O00141 whole entry): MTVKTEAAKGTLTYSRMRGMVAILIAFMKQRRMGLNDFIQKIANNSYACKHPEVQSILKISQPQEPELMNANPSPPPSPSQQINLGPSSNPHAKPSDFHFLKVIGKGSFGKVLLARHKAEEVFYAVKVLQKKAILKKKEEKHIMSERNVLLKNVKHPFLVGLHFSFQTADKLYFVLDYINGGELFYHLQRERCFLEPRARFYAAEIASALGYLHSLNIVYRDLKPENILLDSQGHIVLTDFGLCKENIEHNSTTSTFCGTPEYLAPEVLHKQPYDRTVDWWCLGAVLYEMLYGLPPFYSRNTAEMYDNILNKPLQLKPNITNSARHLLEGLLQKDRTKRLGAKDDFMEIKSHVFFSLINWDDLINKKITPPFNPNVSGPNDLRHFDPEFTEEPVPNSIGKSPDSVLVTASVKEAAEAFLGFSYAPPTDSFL

[3] = Toxicity in BALB/c nude mouse xenografted with human SKOV3 cells assessed as reduction in mouse survival at 60 to 80 mg/kg, po administered once daily for 21 days; assay type: organism-based; settings: in vivo, 504 h
[4] = target: Ribosomal protein S6 kinase beta-1 (Homo sapiens, UniProt P23443); assay: Inhibition of human P70S6K by mobility shift assay
Ribosomal protein S6 kinase beta-1, sequence (P23443 whole entry): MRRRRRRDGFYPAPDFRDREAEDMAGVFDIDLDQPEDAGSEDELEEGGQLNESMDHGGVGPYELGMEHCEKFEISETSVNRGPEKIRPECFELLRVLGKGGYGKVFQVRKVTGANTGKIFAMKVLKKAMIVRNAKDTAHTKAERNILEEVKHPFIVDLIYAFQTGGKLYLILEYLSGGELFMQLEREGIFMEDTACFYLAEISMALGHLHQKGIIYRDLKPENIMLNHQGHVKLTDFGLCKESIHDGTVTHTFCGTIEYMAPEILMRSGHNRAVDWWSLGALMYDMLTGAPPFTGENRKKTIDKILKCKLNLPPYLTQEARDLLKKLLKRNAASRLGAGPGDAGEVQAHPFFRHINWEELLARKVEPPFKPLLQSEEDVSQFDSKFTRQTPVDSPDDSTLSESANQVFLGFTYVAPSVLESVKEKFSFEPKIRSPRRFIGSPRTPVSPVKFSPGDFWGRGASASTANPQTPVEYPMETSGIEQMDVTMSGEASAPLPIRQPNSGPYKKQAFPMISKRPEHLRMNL

OVCAR-8 = assay: Antiproliferative activity against human OVCAR8 cells; assay type: functional, cell-based
HCT-116 = assay: cells; settings: Homo sapiens, HCT-116, 72 h
[5] = Toxicity in BALB/c nude mouse xenografted with human SKOV3 cells assessed as effect on body weight at 60 to 80 mg/kg, po administered once daily for 21 days; assay type: organism-based; settings: in vivo, 504 h
[6] = Inhibition of recombinant His-tagged human PKA expressed in Escherichia coli using Ser/Thr 01 as substrate after 1 hr by Z-lyte assay
[7] = target: RAC-alpha serine/threonine-protein kinase (Homo sapiens, UniProt P31749)
RAC-alpha serine/threonine-protein kinase, sequence (P31749 whole entry): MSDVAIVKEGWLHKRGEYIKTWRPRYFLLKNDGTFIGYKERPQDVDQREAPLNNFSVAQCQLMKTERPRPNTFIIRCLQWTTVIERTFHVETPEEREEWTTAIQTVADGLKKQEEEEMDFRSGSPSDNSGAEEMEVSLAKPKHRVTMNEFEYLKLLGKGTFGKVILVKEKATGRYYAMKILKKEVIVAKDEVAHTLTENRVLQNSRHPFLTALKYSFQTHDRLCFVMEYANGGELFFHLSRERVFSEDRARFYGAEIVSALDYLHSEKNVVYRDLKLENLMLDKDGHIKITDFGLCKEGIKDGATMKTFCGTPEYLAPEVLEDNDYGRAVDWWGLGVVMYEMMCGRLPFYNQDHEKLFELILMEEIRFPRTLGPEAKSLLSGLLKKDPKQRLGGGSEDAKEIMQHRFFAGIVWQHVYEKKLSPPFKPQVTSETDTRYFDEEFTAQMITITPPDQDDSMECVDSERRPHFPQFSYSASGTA
Description: Inhibition of human Akt1 expressed in Escherichia coli using STK Substrate 2-biotin as substrate incubated for 1 hr by HTRF assay

[8] = AUC (0 to infinity) in Sprague-Dawley rat at 25 mg/kg, ig measured up to 24 hrs by LC-MS/MS analysis; assay type: ADME, organism-based; parameters: dose 25 mg/kg, route […], time infinity; settings: in vivo, po
[9] = Stability in human plasma at 100 ug/ml after 1 hr by LC/MS analysis; assay type: ADME, cell-free; settings: read-out: Stability
Protein kinase C (PKC) = assay: Inhibition of PKC (unknown origin); assay type: protein assay, Homo sapiens
[10] = Microsomal stability in mouse liver microsomes assessed as compound remaining at 100 ug/ml in presence of NADPH measured at 1.5 hrs by LC/MS analysis; assay type: ADME, Microsome; settings: read-out: Stability
[11] = Clearance in Sprague-Dawley rat at 25 mg/kg, ig measured up to 24 hrs by LC-MS/MS analysis; assay type: ADME, organism-based; settings: in vivo, po
[12] = Half-life in Sprague-Dawley rat at 25 mg/kg, ig measured up to 24 hrs by LC-MS/MS analysis; assay type: ADME, organism-based; settings: in vivo, po
[13] = Stability in mouse plasma at 100 ug/ml after 1 hr by LC/MS analysis; assay type: ADME, cell-free; settings: read-out: Stability
[14] = MRT (0 to t) in Sprague-Dawley rat at 25 mg/kg, ig measured up to 24 hrs by LC-MS/MS analysis; assay type: ADME, organism-based; settings: in vivo, po
[15] = target: RAC-beta serine/threonine-protein kinase (Homo sapiens, UniProt P31751); assay: Inhibition of human Akt2 by mobile shift assay
[16] = MRT (0 to infinity) in Sprague-Dawley rat at 25 mg/kg, ig measured up to 24 hrs by LC-MS/MS analysis; assay type: ADME, organism-based; settings: in vivo, po
[17] = target: RAC-gamma serine/threonine-protein kinase (Homo sapiens, UniProt Q9Y243); assay: Inhibition of Akt3 (unknown origin) by mobile shift assay
RAC-gamma serine/threonine-protein kinase, sequence (Q9Y243 whole entry): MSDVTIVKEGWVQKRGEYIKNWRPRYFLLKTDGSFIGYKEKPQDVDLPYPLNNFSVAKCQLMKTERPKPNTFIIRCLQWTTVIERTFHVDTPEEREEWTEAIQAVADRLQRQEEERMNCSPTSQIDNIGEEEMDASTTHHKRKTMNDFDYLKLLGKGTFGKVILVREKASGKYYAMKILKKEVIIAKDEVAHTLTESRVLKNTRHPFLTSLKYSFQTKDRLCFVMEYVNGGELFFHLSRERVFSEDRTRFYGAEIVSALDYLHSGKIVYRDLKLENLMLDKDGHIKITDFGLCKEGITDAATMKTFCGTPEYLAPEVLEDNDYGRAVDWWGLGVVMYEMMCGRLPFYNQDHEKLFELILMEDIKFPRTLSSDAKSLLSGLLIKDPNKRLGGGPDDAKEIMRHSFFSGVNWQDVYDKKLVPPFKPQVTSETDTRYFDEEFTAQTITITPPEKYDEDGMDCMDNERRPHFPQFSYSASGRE

[18] = Cmax in Sprague-Dawley rat at 25 mg/kg, ig measured up to 24 hrs by LC-MS/MS analysis; assay type: ADME, organism-based; parameters: dose 25 mg/kg, route […]; settings: in vivo, po
[19] = Tmax in Sprague-Dawley rat at 25 mg/kg, ig measured up to 24 hrs by LC-MS/MS analysis; assay type: ADME, organism-based; settings: in vivo, po
[20] = AUC (0 to t) in Sprague-Dawley rat at 25 mg/kg, ig measured up to 24 hrs by LC-MS/MS analysis; assay type: ADME, organism-based; parameters: time < 24 hr, dose 25 mg/kg, route […]; settings: in vivo, po
[21] = Microsomal stability in dog liver microsomes assessed as compound remaining at 100 ug/ml in presence of NADPH measured at 1.5 hrs by LC/MS analysis; assay type: ADME, Canis lupus familiaris, Microsome; settings: read-out: Stability
[22] = Microsomal stability in rat liver microsomes assessed as compound remaining at 100 ug/ml in presence of NADPH measured at 1.5 hrs by LC/MS analysis; assay type: ADME, Microsome; settings: read-out: Stability
[23] = Volume of distribution in Sprague-Dawley rat at 25 mg/kg, ig measured up to 24 hrs by LC-MS/MS analysis; assay type: ADME, organism-based; settings: in vivo, po
[24] = target: Rho-associated protein kinase 1 (Homo sapiens, UniProt Q13464); assay: Inhibition of human ROCK1 by mobile shift assay
Rho-associated protein kinase 1, sequence (Q13464 whole entry): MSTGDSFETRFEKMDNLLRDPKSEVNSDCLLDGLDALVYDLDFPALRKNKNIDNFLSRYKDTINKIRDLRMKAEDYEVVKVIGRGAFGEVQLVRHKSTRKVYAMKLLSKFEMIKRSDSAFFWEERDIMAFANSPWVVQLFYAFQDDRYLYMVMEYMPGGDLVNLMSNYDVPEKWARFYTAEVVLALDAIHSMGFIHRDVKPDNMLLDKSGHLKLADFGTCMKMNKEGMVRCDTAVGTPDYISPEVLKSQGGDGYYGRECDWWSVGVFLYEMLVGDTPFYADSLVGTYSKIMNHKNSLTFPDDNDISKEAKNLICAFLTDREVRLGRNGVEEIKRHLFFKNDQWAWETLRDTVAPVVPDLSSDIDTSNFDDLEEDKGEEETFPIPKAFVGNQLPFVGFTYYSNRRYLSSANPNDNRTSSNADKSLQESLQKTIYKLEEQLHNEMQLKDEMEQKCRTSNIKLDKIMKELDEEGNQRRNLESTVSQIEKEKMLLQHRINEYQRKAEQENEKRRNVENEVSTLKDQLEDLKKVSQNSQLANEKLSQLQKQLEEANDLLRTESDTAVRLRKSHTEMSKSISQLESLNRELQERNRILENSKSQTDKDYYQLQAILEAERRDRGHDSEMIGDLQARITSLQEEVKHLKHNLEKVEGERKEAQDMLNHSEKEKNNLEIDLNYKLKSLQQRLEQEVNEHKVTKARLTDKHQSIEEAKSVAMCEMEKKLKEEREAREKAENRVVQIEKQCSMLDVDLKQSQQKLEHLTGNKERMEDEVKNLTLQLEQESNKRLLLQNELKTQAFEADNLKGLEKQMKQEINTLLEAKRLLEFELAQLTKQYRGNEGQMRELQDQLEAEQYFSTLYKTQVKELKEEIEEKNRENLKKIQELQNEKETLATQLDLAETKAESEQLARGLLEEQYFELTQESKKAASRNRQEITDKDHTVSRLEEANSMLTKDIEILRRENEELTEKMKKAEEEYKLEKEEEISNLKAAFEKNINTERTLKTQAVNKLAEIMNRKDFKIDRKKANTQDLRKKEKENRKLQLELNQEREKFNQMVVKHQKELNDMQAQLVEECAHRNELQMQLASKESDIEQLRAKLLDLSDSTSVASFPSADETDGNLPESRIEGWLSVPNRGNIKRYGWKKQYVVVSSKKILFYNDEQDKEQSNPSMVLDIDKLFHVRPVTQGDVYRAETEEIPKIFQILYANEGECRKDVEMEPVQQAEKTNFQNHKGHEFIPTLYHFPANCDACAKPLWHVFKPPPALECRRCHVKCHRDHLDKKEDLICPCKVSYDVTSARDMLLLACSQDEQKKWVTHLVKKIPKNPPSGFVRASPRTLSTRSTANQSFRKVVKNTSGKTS

[25] = Microsomal stability in monkey liver microsomes assessed as compound remaining at 100 ug/ml in presence of NADPH measured at 1.5 hrs by LC/MS analysis; assay type: ADME, Macaca mulatta, Microsome; settings: rhesus monkey, read-out: Stability

Cn1ncc(Cl)c1-c1cc(C(=O)N[C@H](CN)Cc2ccc(F)c(F)c2)oc1Cl [UPROSERTIB]
inhibition in vivo at 60 mg/kg (SK-OV-3): 63.3%
inhibition at 3 µM (hERG (KCNH2)): 50 to 50.2%
IC50 [1]: 339 nM
IC50 (LNCaP): 70 nM
IC50 [2]: 211 nM
Activity [3]: Non-Toxic
IC50 [4]: 60 nM
IC50 (OVCAR-8): 240 to 1320 nM
IC50 (HCT-116): 720 to 1270 nM
Activity [5]: Non-Toxic
IC50 [6]: 0.6 nM

Cn1ncc(Cl)c1-c1cc(C(=O)N[C@@H]2CN[C@H](CCN3CCCCC3)C[C@H]2c2ccc(Cl)c(Cl)c2)oc1Cl
inhibition at 3 µM (hERG (KCNH2)): 93.1%
IC50 (LNCaP): 1780 nM
IC50 [7]: 5.65 nM
IC50 (OVCAR-8): 1660 nM
IC50 (HCT-116): 1020 nM

Cn1ncc(Cl)c1-c1cc(C(=O)N[C@@H]2CNCC[C@H]2c2ccc(Cl)c(Cl)c2)oc1Cl
inhibition at 3 µM (hERG (KCNH2)): 87%
IC50 (LNCaP): 100 nM
IC50 [7]: 2.9 nM
IC50 (OVCAR-8): 110 nM
IC50 (HCT-116): 280 nM

Cn1ncc(Cl)c1-c1cc(C(=O)N[C@@H]2CN[C@H](CCN3CCC(O)CC3)C[C@H]2c2ccc(Cl)c(Cl)c2)oc1Cl
inhibition at 3 µM (hERG (KCNH2)): 12%
IC50 (LNCaP): 1140 nM
IC50 [7]: 5.99 nM
IC50 (OVCAR-8): 15900 nM
IC50 (HCT-116): 13700 nM

Cn1ncc(Cl)c1-c1cc(C(=O)N[C@@H]2CN[C@H](CC(O)CO)C[C@H]2c2ccc(F)c(F)c2)oc1Cl (some centres undefined)
inhibition at 3 µM (hERG (KCNH2)): 4.7%
IC50 (LNCaP): 100 nM
IC50 [7]: 3.31 nM
IC50 (OVCAR-8): 690 nM
IC50 (HCT-116): 800 nM

Cn1ncc(Cl)c1-c1cc(C(=O)N[C@@H]2CN[C@H](CC(=O)NC3CC3)C[C@H]2c2ccc(Cl)c(Cl)c2)oc1Cl
inhibition at 3 µM (hERG (KCNH2)): 70.4%
IC50 (LNCaP): 190 nM
IC50 [7]: 3.95 nM
IC50 (OVCAR-8): 580 nM
IC50 (HCT-116): 740 nM

CN(C)CC[C@@H]1C[C@@H](c2ccc(Cl)c(Cl)c2)[C@H](NC(=O)c2cc(-c3c(Cl)cnn3C)c(Cl)o2)CN1
inhibition at 3 µM (hERG (KCNH2)): 73.4%
IC50 (LNCaP): 1930 nM
IC50 [7]: 3.4 nM
IC50 (OVCAR-8): 1510 nM
IC50 (HCT-116): 1710 nM

Cn1ncc(Cl)c1-c1cc(C(=O)N[C@@H]2CN[C@H](CCO)C[C@H]2c2ccc(Cl)c(Cl)c2)oc1Cl
inhibition at 3 µM (hERG (KCNH2)): 51.8%
IC50 (LNCaP): 160 nM
IC50 [7]: 2.74 nM
IC50 (OVCAR-8): 610 nM
IC50 (HCT-116): 340 nM

Cn1ncc(Cl)c1-c1cc(C(=O)N[C@@H]2CN[C@H](CC(O)CO)C[C@H]2c2ccc(Cl)c(Cl)c2)oc1Cl (some centres undefined)
inhibition at 3 µM (hERG (KCNH2)): 17%
IC50 (LNCaP): 70 nM
IC50 [7]: 3.79 nM
IC50 (OVCAR-8): 1610 nM
IC50 (HCT-116): 1110 nM

CC(=O)NCC[C@@H]1C[C@@H](c2ccc(F)c(F)c2)[C@H](NC(=O)c2cc(-c3c(Cl)cnn3C)c(Cl)o2)CN1
inhibition at 3 µM (hERG (KCNH2)): 7.4%
IC50 (LNCaP): 130 nM
IC50 [7]: 2.49 nM
IC50 (OVCAR-8): 880 nM
IC50 (HCT-116): 920 nM

CNC(=O)C[C@@H]1C[C@@H](c2ccc(Cl)c(Cl)c2)[C@H](NC(=O)c2cc(-c3c(Cl)cnn3C)c(Cl)o2)CN1
inhibition at 3 µM (hERG (KCNH2)): 45.9%
IC50 (LNCaP): 40 nM
IC50 [7]: 2.64 nM
IC50 (OVCAR-8): 1130 nM
IC50 (HCT-116): 450 nM

Cn1ncc(Cl)c1-c1cc(C(=O)N[C@@H]2CN[C@H](CC(=O)NCCO)C[C@H]2c2ccc(Cl)c(Cl)c2)oc1Cl
inhibition at 3 µM (hERG (KCNH2)): 6.7%
IC50 (LNCaP): 40 nM
IC50 [7]: 1.41 nM
IC50 (OVCAR-8): 1450 nM
IC50 (HCT-116): 670 nM

Cn1ncc(Cl)c1-c1cc(C(=O)N[C@@H]2CN[C@H](CC(=O)O)C[C@H]2c2ccc(Cl)c(Cl)c2)oc1Cl
inhibition at 3 µM (hERG (KCNH2)): 9.1%
IC50 (LNCaP): 640 nM
IC50 [7]: 1.94 nM
IC50 (OVCAR-8): 5120 nM
IC50 (HCT-116): 4020 nM

Cn1ncc(Cl)c1-c1cc(C(=O)N[C@@H]2CN[C@H](CCn3cncn3)C[C@H]2c2ccc(Cl)c(Cl)c2)oc1Cl
inhibition at 3 µM (hERG (KCNH2)): 50.1%
IC50 (LNCaP): 60 nM
IC50 [7]: 4.47 nM
IC50 (OVCAR-8): 1560 nM
IC50 (HCT-116): 560 nM

Cn1ncc(Cl)c1-c1cc(C(=O)N[C@@H]2CN[C@H](CCO)C[C@H]2c2ccc(F)c(F)c2)oc1Cl
AUC(0-inf) [8]: 1660 ng·h/mL
remaining at 1 h, 100 ug/ml [9]: > 99%
IC50 (Protein kinase C (PKC)): 16 nM
remaining at 1.5 h, 100 ug/ml [10]: > 99%
CL/F [11]: 433 mL/min/kg
half-life [12]: 12.7 h
remaining at 1 h, 100 ug/ml [13]: > 99%
MRT last at 24 h [14]: 5.1 h
inhibition at 3 µM (hERG (KCNH2)): 9%
IC50 [15]: 0.54 nM
IC50 [1]: 32 nM
IC50 (LNCaP): 60 nM
MRT inf [16]: 12.3 h
IC50 [7]: 0.98 nM
IC50 [17]: 0.12 nM
IC50 [2]: 102 nM
IC50 [4]: 7.1 nM
Cmax [18]: 145 ng/mL
Tmax [19]: 1.1 h
IC50 (OVCAR-8): 460 nM
AUC(0-t) at 24 h [20]: 1010 ng·h/mL
remaining at 1.5 h, 100 ug/ml [21]: 96%
IC50 (HCT-116): 360 nM
remaining at 1.5 h, 100 ug/ml [22]: 69%
Vd [23]: 300.9 L/kg
IC50 [24]: 38 nM
remaining at 1.5 h, 100 ug/ml [25]: 18%
IC50 [6]: 0.2 nM
